Measured values from patent US9125828B2, “MOC compositions” (Givaudan SA, priority 2010, dated 2015).

Tested on: axillary malodour
Assay: Deodorancy of pro-perfumes compared with their breakdown products
Format: in vivo
Conditions: pro perfumes that undergo scission when exposed to UV light; no data given
From the text: The effectiveness of compositions of the present invention comprising 2-Ethoxy-4-formylphenyl (E)-3-(2-hydroxyphenyl) acrylate and/or (E)-Dec-9-enyl 3-(2-hydroxyphenyl) acrylate, two group A materials, in axillary malodour counteracting deodorant is particularly surprising. These materials are pro perfumes that undergo scission into other compounds when exposed to UV light, this is disclosed in EP 936211. The use of materials that require light activation is counter-intuitive for application in underarm products such as deodorants and antiperspirants.

Compound | deodorancy relative to breakdown products
CCOc1cc(C=O)ccc1OC(=O)/C=C/c1ccccc1O [2-Ethoxy-4-formylphenyl (E)-3-(2-hydroxyphenyl)acrylate] | better deodorancy than their breakdown products
C=CCCCCCCCCOC(=O)/C=C/c1ccccc1O [(E)-Dec-9-enyl 3-(2-hydroxyphenyl)acrylate] | better deodorancy than their breakdown products
